Measurements reported in US20040071718A1, “Local nasal immunotherapy for allergen-induced airway inflammation” (priority 2002, published 2004).
Marks after values point to notes of the source that are not given here.

Tests used:
Assay type in all cases: in vivo
Balb/c mice [1] = experiment: IL-5 and IFN-γ levels in sera and BALF (ELISA) after LNIT; settings: for IL-5 levels in sera: Example 1, FIG. 3A; for IFN-γ levels in sera: Example 1, FIG. 3B; for IFN-γ / IL-5: Example 2, mean ± SEM, n = 6
Experimental: (§1) Male Balb/c mice were obtained from the National Laboratory Breeding Research Center in Taiwan and were raised in a specific pathogen-free environment. The mice used were between six and eight weeks of age. Groups of six mice were caged separately according to their treatment.
(§2) Mice were immunized by way of an intraperitoneal (IP) injection of 1 μg/0.1 mL rDp2 emulsified in 4.0 mg/0.062mL aluminum hydroxide Al(OH)3 (Whitehall Lab Ltd. Punchbowl, NSW, Australia) on day 0 and day 7. Following immunization, local nasal immunotherapy (LNIT) was conducted daily from day 14 to day 35 with Dp2 28-40, Dp2 28-40A, FIP alone or FIP mixed with either Dp2 28-40 or Dp2 28-40A (FIP, 50 μg/mouse/day; Dp2 peptide, 1 μg/20 μL) in PBS with 10% glycerol. Normal saline (NS) and irrelevant allergen Bt were used as a negative control. […] On day 28, mice were lightly anesthetized with an IP injection of 60 mg/kg of sodium pentobarbital (Sigma Chemical Co., St Louis, Mo., U.S.A.) and inoculated intratracheally (IT) with 1 μg/50 μL of rDp 2 on day 28 and day 35. Two days subsequent to the second IT inoculation, the mice were sacrificed following the assessment of their pulmonary function (FIG. 1).
IFN-γ and IL-5 were measured using commercially-available ELISA kits, using a specific mouse monoclonal Ab that recognized different epitopes of the cytokine molecules. The lowest detector range was 10 pg/mL. Given that the BALF was considered to be at too diluted a concentration, IL-4 was not measured.

Balb/c mice [2] = experiment: Lung pathology (HE stain) after LNIT; settings: lung tissue two days after IT with rDp2; for pathology: inflammatory cell infiltration and epithelium damage in the airway: Example 1, FIGS. 6A-6F
Text: FIGS. 6A-6F are photographs showing the pathology of different groups of mice after LNIT. The lung tissues were obtained two days after IT with rDp2. […] (HE stain, ×400).
FIGS. 9A-1˜9F-2 are photographs showing the pathology of different groups of mice following LNIT. The lung tissues were obtained two days subsequent to IT inoculation with rDp2. FIGS. 9A-1, -2: naive mice; FIGS. 9B-1, -2: NS-treated mice; FIGS. 9C-1, -2: DEX-treated mice; FIGS. 9D-1, -2: FIP-fve treated mice; FIGS. 9E-1, -2: Dp2 28-40A+FIP-fve treated mice; and FIGS. 9F-1, -2: Dp2 28-40+FIP-fve treated mice. FIGS. 9A-1, 9B-1, 9C-1, 9D-1, 9E-1 and 9F-1: HE stain, 100×; 9A-2, 9B-2, 9C-2, 9D-2, 9E-2, 9F-2: HE stain, 400×
as §2

Balb/c mice [3] = experiment: Cytokine producing cells in peripheral blood (flow cytometry) after LNIT; settings: for IL-5/IFN-γ (CD4) / IL-5/IFN-γ (CD8): peripheral blood
Experimental: as §1, §2
Two-color staining methods were used to analyze IFN-γ and IL-5 expression amongst CD4 cells. Leukocytes derived from peripheral blood (PBL) were stimulated with PMA (50 ng/mL), ionomycin (2 μM) and GolgiStop (Cytofix/Cytoperm Plus Pharmingen San Diego, Calif., U.S.A.) for five hours and then washed twice using PBS. The cells were stained with CD4-PerCP, CD8-FITC or IgG1-FITC (PharMingen) at room temperature (RT) for 30 minutes and then washed. Cells were fixed with cytofix/cytoperm at RT for 30 minutes and then stained with anti-cytokine antibody and IgG2a-PE (PharMingen) at RT for 30 minutes and subsequently washed. Both IgG1-FITC and IgG2a-PE were purchased from the same manufacturer as the anticytokine antibodies and the negative controls. Cells were resuspended in 0.5 mL PBS containing 0.1% w/v sodium azide. Mean fluorescence was measured by means of Becton Diskinson flow cytometry (Becton Diskinson, Calif., U.S.A.). A total of 2,000 cells was analyzed for each sample.

Balb/c mice [4] = experiment: Leukocyte subpopulations in BALF of rDp2-sensitized mice after local nasal immunotherapy (LNIT); settings: for Eosinophil / Lymphocyte / Macrophage / Neutrophil / Total cell: BALF; for anti-inflammatory effect on airway inflammation: Example 1, BALF inflammatory cells compared to the NS groups
Experimental: Male Balb/c mice were obtained from the National Laboratory Breeding Research Center in Taiwan and were raised in a specific pathogen-free environment. The mice used were between six and eight weeks of age. Groups of six mice were caged separately according to their treatment. Recombinant Dermatophoides pteronyssinus group 2 (rDp2) was prepared as previously described(Tsai J J, et al. Int Arch Allergy Immunol 2000;121:205-10). Dp2 28-40 and Dp2 28-40A were obtained from Dr. Jonathan Lamb (Respiratory Medicine Unit, Edinburgh University, Medical School, Edinburgh, UK) (Verhoef A, and Lamb J R. J Immunol 2000;164:6034-6040). FIP was obtained from Dr. Ko Jiunn-Liang (Institute of Toxicology, Chung Shan Medical University, Taichung, R O C) (J L Ko, et al. Eur. J. Biochem. 1995;228:244-249).
as §2
Subsequent to pulmonary function measurement having been completed, bronchoalveolar lavage (BAL) was performed using the following procedure. BAL fluids were collected with lmL sterile endotoxin-free saline washes of each lung via the trachea for each mouse. BAL cells were washed once with PBS by centrifugation at 200×g at 4° C. Subsequent to washing, the cells were resuspended in RPMI-1640 (Sigma Chemical Co.). The total leukocyte count in BAL fluids was determined using a hemocytometer. The BAL fluids were aspirated and stored at −70° C. until needed for assay purposes. Subsequent to total leukocyte counting, a cytospin preparation of 100 μL BAL fluids (2×10^5 cells/mL) was conducted, the cells being cytocentrifuged directly onto glass slides at 350 r.p.m. for five minutes using a Cytospin 3 cytocentrifuge (Shandon Scientific Limited, Astmoor, Runcorn, UK), and then stained with Liu stain (Tonyar Diagnostic Inc, Taipei & Hien, Taiwan). The differential counts were performed for a total of 200 leukocyte cells.

[5] = Example 1, percentage of positive stained cells in the PBMC of six mice
[6] = Example 1, ratio of IL-5 to IFN-γ producing CD4 cells
[7] = Example 1, ratio of IL-5 to IFN-γ producing CD8 cells
[8] = Example 1, LNIT day 14-35, rDp2 IT challenge, mean ± SEM of six animals
[9] = Example 2, percentage of total leukocytes in the peripheral blood of six mice
[10] = Example 2 (FIP study), mean ± SEN of six mice

Dp2 28-40: Dermatophoides pteronyssinus group 2 (Dp2) epitope peptide, residues 28-40, amino acid sequence ID No. 1 (IIHRGKPFQLEAV; listed as Dermatophoides pteronyssinus)
IL-5 levels in sera (Balb/c mice [1]; compared to NS treated mice): decreased
IFN-γ levels in sera (Balb/c mice [1]; compared to NS treated mice): Significantly increased
IL-5 levels in BALF (Balb/c mice [1]; Example 1, FIG. 3C, compared to NS treated mice): significant reduction
IFN-γ levels in BALF (Balb/c mice [1]; Example 1, FIG. 3D, compared to NS treated mice): significant increase
pathology: inflammatory cell infiltration and epithelium damage in the airway (Balb/c mice [2]): reductions in airway inflammation
CD4^+ (Balb/c mice [3]; [5]): 56.0 percentage
CD8^+ (Balb/c mice [3]; [5]): 9.8 percentage
IFN-γ^+/CD4^+ (Balb/c mice [3]; [5]): 27.8 percentage
IFN-γ^+/CD8^+ (Balb/c mice [3]; [5]): 16.8 percentage
IL-5^+/CD4^+ (Balb/c mice [3]; [5]): 17.7 percentage
IL-5^+/CD8^+ (Balb/c mice [3]; [5]): 9.5 percentage
IL-5/IFN-γ (CD4) (Balb/c mice [3]; [6]): 0.6
IL-5/IFN-γ (CD8) (Balb/c mice [3]; [7]): 0.6
Eosinophil (Balb/c mice [4]; [8]): 3.5 ± 0.5* 10^4 cells/mL
Lymphocyte (Balb/c mice [4]; [8]): 11.8 ± 0.8* 10^4 cells/mL
Macrophage (Balb/c mice [4]; [8]): 31.0 ± 2.5* 10^4 cells/mL
Neutrophil (Balb/c mice [4]; [8]): 7.2 ± 1.5* 10^4 cells/mL
Total cell (Balb/c mice [4]; [8]): 53.3 ± 4.1* 10^4 cells/mL
anti-inflammatory effect on airway inflammation (Balb/c mice [4]): best anti-inflammatory effect

Dp2 28-40A: altered TCR ligand of Dp2 28-40, residues at positions 34 and 36 substituted by alanine; amino acid sequence ID No. 2 (IIHRGKAFALEAV; listed as Dermatophoides pteronyssinus)
IL-5 levels in sera (Balb/c mice [1]; compared to NS treated mice): decreased
IFN-γ levels in sera (Balb/c mice [1]; compared to NS treated mice): Significantly increased
pathology: inflammatory cell infiltration and epithelium damage in the airway (Balb/c mice [2]): reductions in airway inflammation
CD4^+ (Balb/c mice [3]; [5]): 51.8 percentage
CD8^+ (Balb/c mice [3]; [5]): 10.7 percentage
IFN-γ^+/CD4^+ (Balb/c mice [3]; [5]): 11.4 percentage
IFN-γ^+/CD8^+ (Balb/c mice [3]; [5]): 5.8 percentage
IL-5^+/CD4^+ (Balb/c mice [3]; [5]): 11.4 percentage
IL-5^+/CD8^+ (Balb/c mice [3]; [5]): 3.5 percentage
IL-5/IFN-γ (CD4) (Balb/c mice [3]; [6]): 1.0
IL-5/IFN-γ (CD8) (Balb/c mice [3]; [7]): 0.6
Eosinophil (Balb/c mice [4]; [8]): 3.0 ± 1.0* 10^4 cells/mL
Lymphocyte (Balb/c mice [4]; [8]): 14.6 ± 3.3* 10^4 cells/mL
Macrophage (Balb/c mice [4]; [8]): 38.4 ± 7.2* 10^4 cells/mL
Neutrophil (Balb/c mice [4]; [8]): 8.2 ± 1.1* 10^4 cells/mL
Total cell (Balb/c mice [4]; [8]): 65.0 ± 3.2* 10^4 cells/mL
anti-inflammatory effect on airway inflammation (Balb/c mice [4]): weaker than Dp2 28-40

B1: FIP: fungal immunomodulatory protein isolated from Flammalina velutipes, amino acid sequence ID No. 3 (protein)
chain: SATSLTFQLAVLVKKIDFDYTPNWGRGTPSSYIDNLTFPKVLTDKKYSYRVVVNGSDLGVESNFAVTPSGGQTINFLQYNKGYGVADTKTIQVFVVIPDTGNSEEYIIAEWKKT
modifications: Flammalina velutipes
IFN-γ (Balb/c mice [1]; BALF): 8.3 ± 0.4 pg/mL
IL-5 (Balb/c mice [1]; BALF): 19.3 ± 1.9 pg/mL
IFN-γ (Balb/c mice [1]; Sera): 52.0 ± 1.9 pg/mL
IL-5 (Balb/c mice [1]; Sera): 77.6 ± 1.9 pg/mL
pathology: inflammatory-cell infiltration and epithelial damage in the airways (Balb/c mice [2]; Example 2, FIGS. 9A-9F): reduction in the level of airway inflammation
CD4 (Balb/c mice [3]; [9]): 29.1 percentage
CD8 (Balb/c mice [3]; [9]): 7.0 percentage
IFN-γ^+/CD4^+ (Balb/c mice [3]; [9]): 13.7 percentage
IFN-γ^+/CD8^+ (Balb/c mice [3]; [9]): 5.0 percentage
IL-5^+/CD4^+ (Balb/c mice [3]; [9]): 12.6 percentage
IL-5^+/CD8^+ (Balb/c mice [3]; [9]): 8.4 percentage
IL-5/IFN-γ (CD4) (Balb/c mice [3]; Example 2, ratio, CD4 cells): 0.9
IL-5/IFN-γ (CD8) (Balb/c mice [3]; Example 2, ratio, CD8 cells): 1.7
Eosinophil (Balb/c mice [4]; [10]): 6.3 ± 1.3 ×10^4/mL
Lymphocyte (Balb/c mice [4]; [10]): 13.0 ± 1.8 ×10^4/mL
Macrophage (Balb/c mice [4]; [10]): 37.0 ± 7.4 ×10^4/mL
Neutrophil (Balb/c mice [4]; [10]): 9.0 ± 2.4 ×10^4/mL
Total cell (Balb/c mice [4]; [10]): 65.0 ± 10.5 ×10^4/mL
airway-inflammation level (cellular component in BALF) (Balb/c mice [4]; Example 2, text summary of Table 3): diminish the airway-inflammation level
